Reference: patent US7939557B2, “Vascular endothelial receptor specific inhibitors” (Nova Southeastern University, priority 2006, dated 2011)

What was measured:
[1] = system: Human umbilical vein endothelial cell; assay: In Vitro Angiogenesis Assay (morphogenesis / tube formation on Matrigel, ECMatrix kit); format: cell-based; parameters: key to Results (In Vitro Angiogenesis Assay score): Individual cells, well separated (+++++); Cells begin to migrate and align themselves (++++); Cells begin to line but not sprouting (+++); Visible Sprouting (++); Closed polygons begins to form (+); conditions: for Results (In Vitro Angiogenesis Assay score): HUVECs on ECMatrix, 8 hours at 37° C., inhibitors 1 mM and 10 mM, higher score = greater inhibition of angiogenesis
Method: Human umbilical vein endothelial cell was purchased from Cambrex Co. (East Rutherford, N.J.) and maintained in EGM (Endothelial Growth Medium) supplemented with 2% FBS, 0.1% EGF, 0.1% Hydrocortisone, 0.1% GA-1000 and 0.4% BBE.
The morphogenesis assay on Matrigel was performed according to the manufacturer's instructions (Chemicon International). The ECMatrix™ kit consists of laminin, collagen type IV, heparan sulfate, proteoglycans, entactin and nidogen. It also contains various growth factors (TGF-β, FGF) and proteolytic enzymes (plasminogen, tPA, MMPs) that are normally produced in EHS tumors. The incubation condition was optimized for maximal tube-formation as follows: 50 μl of EC Matrix™ was suitably diluted in the ratio 9:1 with 10× diluent buffer and used for coating the 96-well plate. The coated plates were incubated at 37° C. for 1 hr. to allow the Matrix solution to solidify. In the meantime the HUVECs that were cultured for 24 hours in EGM with 2% FBS was trypsinised and re-suspended in the growth media and the cells were counted. After 1 hr. pre-incubation of the plate with Matrix solution, the HUVECs were plated at 10^4 cells/well in the absence or in the presence of different VEGFR inhibitors (1 mM and 10 mM). After 8 hours incubation at 37° C., the cell three-dimensional organization (cellular network structures) was examined under an inverted photomicroscope. Each treatment was performed in triplicate.
Activated endothelial cells form cellular networks (mesh like structures) resembling capillary tubes sprouting into the stromal space. The formation of these cellular networks is a dynamic process, which started migration and alignment of cells followed by the development of capillary tubes like structures, sprouting of new branches and finally the formation of the cellular networks. Although this in vitro angiogenesis kit is designed only as a qualitative assay, we have made an attempt to quantitate the degree of angiogenesis using a scoring method. The scoring was based on the extent of the cellular networks that were observed as follows:
Individual cells, well separated (+++++)
Cells begin to migrate and align themselves (++++)
Cells begin to line but not sprouting (+++)
Closed polygons begins to form (+).
According to our qualitative assessment, the higher the scoring the greater the efficiency of the compound for inhibiting endothelial cell mediated angiogenesis.

VEGFR = assay: Assay of VEGF Receptor Tyrosine Kinase Activity (VEGFR immunoprecipitated from cell lysate, non-radioactive PTK ELISA kit); format: biochemical
Description: Protein Tyrosine Kinases (PTKs) perform a critical role in signal transduction pathways that control cell proliferation, differentiation, metabolism, and apoptosis. Phosphorylation of proteins by PTKs is essential for the regulation of these biological mechanisms and defects in these pathways may result in a number of human diseases, including cancer. The important aspect of these enzymes in cellular regulation is accentuated by the fact that for a large number of kinases a corresponding viral oncogene product has been identified. […] CHEMICON's non-radioactive Tyrosine Kinase Activity Assay provides a simple, convenient and specific method for quantification and comparative determination of a wide range of PTKs. […]
The non-radioactive Tyrosine Kinase Activity Assay Kit consists of a synthetic Biotinylated Peptide Substrate, a Biotinylated Phosphopeptide, purified Phosphotyrosine specific monoclonal antibody conjugated to horseradish peroxidase (HRP) and other components required to perform 96 ELISA-based assays. […] The quantity of phosphate incorporated into the tyrosine kinase substrate is determined utilizing the phosphopeptide standard curve. […] The assay reaction would be terminated by the addition of 100 μl of stop solution and finally, the absorbance was measure on a standard microplate reader at 450 nm. […]

MCF-7 = assay: Cytotoxicity towards breast carcinoma cell line MCF-7; format: cell-based
GI-101A = assay: Cytotoxicity towards breast carcinoma cell line GI-101A; format: cell-based

SMILES | Results (In Vitro Angiogenesis Assay score) [1] | further results
N#Cc1ccc(C(=O)Nc2ccc3c(c2)C(=O)NC3=O)cc1 [Example 2] | +++ | –
O=C(Nc1cccc2c1C(=O)NC2=O)c1ccc([N+](=O)[O-])o1 [Example 4] | +++++ | EC50 ([1]; Homo sapiens, Endothelial cell, estimated, read-out: EC50 value for anti-antigenic effect): 25 nM; IC50 (VEGFR; VEGFR immunoprecipitated from cell lysate, PTK assay, read-out: IC50 for inhibiting VEGFR kinase): 400 nM; inhibition of VEGFR associated tyrosine kinase activity (in words) (VEGFR; level of inhibition increased with concentration): able to inhibit the VEGFR associated tyrosine kinase activity; cytotoxicity towards MCF-7 (MCF-7): produced cytotoxicity; cytotoxicity towards GI-101A (GI-101A): produced cytotoxicity
O=C(Nc1ccc2c(c1)C(=O)NC2=O)c1nc2ccccc2s1 [Example 1] | ++++ | –
O=C(Nc1cccc2c1C(=O)NC2=O)c1ccc(Cl)s1 [Example 6] | +++ | –
CC(=O)c1ccc(C(=O)Nc2ccc3c(c2)C(=O)NC3=O)cc1 [Example 3] | ++ | –
O=C(Nc1cccc2c1C(=O)NC2=O)c1ccc(S(=O)(=O)N2CCCCC2)cc1 [Example 5] | +++ | –
